Calls of active or inactive are those of the source. The calls are words filed in the database; no cut-off is given here.
Key:
A-431 [1] = test: Reduction of clustering of GFP-GPI in lipid rafts of human A431 cells at 100 uM after 12 hrs by confocal microscopic analysis; type: functional, cell-based
A-431 [2] = test: Downregulation of ErbB1 protein expression in human A431 cells in serum free medium at 200 uM after 30 mins by immunofluorescence staining-based confocal microscopic analysis; type: functional, cell-based
A-431 [3] = test: Downregulation of ErbB1 protein expression in human A431 cells in serum free medium at 50 uM after 24 hrs by immunofluorescence staining-based flow cytometric analysis; type: functional
[4] = Downregulation of ErbB2 protein expression in human SKBR3 cells at 50 uM after 24 hrs by immunofluorescence staining-based flow cytometric analysis in presence of serum; type: functional, cell-based; settings: SK-BR-3
[5] = Antiproliferative activity against human SKBR3 cells overexpressing ErbB in complete medium assessed as cell viability after 48 hrs by WST-1 assay; type: functional, cell-based; settings: SK-BR-3, 48 h
SK-BR-3 [6] = test: Induction of apoptosis in human SKBR3 cells overexpressing ErbB in complete medium assessed as late apoptotic/necrotic cells at 75 uM after 72 hrs by annexin V-FITC/7-AAD staining-based flow cytometric analysis relative to control; type: functional
A-431 [7] = test: Ratio of EC50 for human A431 cells overexpressing ErbB in complete medium to EC50 for human A431 cells overexpressing ErbB in serum-free medium; type: functional
SK-BR-3 [8] = test: Reduction of clustering of GFP-GPI in lipid rafts of human SKBR3 cells at 100 uM after 12 hrs by confocal microscopic analysis; type: functional, cell-based
[9] = target: Receptor tyrosine-protein kinase erbB-2 (Homo sapiens) (UniProt P04626); test: Induction of ErbB2 internalization in lysosome/endosome of human SKBR3 cells in serum free medium at 200 uM after 30 mins by immunofluorescence staining-based confocal microscopic analysis; type: cell-based; settings: SK-BR-3
Sequence of Receptor tyrosine-protein kinase erbB-2 (Homo sapiens) (P04626 whole entry): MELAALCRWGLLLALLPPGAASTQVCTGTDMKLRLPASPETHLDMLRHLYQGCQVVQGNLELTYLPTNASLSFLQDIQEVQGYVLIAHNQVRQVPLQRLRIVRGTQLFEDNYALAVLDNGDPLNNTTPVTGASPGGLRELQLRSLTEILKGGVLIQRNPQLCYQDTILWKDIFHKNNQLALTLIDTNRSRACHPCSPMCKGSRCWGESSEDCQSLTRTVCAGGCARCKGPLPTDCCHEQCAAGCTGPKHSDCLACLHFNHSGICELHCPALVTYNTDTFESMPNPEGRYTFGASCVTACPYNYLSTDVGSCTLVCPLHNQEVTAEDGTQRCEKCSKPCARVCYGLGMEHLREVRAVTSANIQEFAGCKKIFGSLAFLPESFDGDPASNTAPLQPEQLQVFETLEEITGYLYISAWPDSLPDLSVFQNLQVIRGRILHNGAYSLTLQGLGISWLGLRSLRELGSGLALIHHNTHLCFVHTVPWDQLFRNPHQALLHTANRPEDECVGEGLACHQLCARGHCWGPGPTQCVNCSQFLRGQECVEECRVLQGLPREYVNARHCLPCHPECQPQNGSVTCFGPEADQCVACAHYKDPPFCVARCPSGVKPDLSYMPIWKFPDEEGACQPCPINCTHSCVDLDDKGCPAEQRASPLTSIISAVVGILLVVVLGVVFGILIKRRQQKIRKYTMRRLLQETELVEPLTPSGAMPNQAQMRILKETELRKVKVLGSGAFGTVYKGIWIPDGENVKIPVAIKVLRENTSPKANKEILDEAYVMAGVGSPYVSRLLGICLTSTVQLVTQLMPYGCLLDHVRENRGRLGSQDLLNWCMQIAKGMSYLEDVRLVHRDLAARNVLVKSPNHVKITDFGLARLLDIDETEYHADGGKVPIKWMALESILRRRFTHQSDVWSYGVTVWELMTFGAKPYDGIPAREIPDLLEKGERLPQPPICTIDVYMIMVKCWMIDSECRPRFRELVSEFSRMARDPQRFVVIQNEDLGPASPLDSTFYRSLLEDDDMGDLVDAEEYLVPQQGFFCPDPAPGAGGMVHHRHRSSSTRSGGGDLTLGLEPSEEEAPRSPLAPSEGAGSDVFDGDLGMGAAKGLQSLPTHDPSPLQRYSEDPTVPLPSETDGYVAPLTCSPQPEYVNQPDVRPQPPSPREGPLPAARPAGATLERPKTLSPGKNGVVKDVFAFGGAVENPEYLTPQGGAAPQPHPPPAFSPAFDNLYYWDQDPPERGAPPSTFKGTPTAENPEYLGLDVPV

[10] = target: Receptor tyrosine-protein kinase erbB-2 (Homo sapiens) (UniProt P04626); test: Induction of ErbB2 internalization in lysosome/endosome of human A431 cells in serum free medium at 200 uM after 30 mins by immunofluorescence staining-based confocal microscopic analysis; type: cell-based; settings: A-431
[11] = Downregulation of ErbB2 protein expression in human SKBR3 cells in serum free medium at 200 uM after 30 mins by immunofluorescence staining-based confocal microscopic analysis; type: functional, cell-based; settings: SK-BR-3
A-431 [12] = test: Downregulation of ErbB1 protein expression in human A431 cells at 50 uM after 24 hrs by immunofluorescence staining-based flow cytometric analysis in presence of serum; type: functional, cell-based
A-431 [13] = test: Antiproliferative activity against human A431 cells overexpressing ErbB in complete medium assessed as cell viability after 48 hrs by WST-1 assay; type: functional, cell-based; settings: A-431, 48 h
SK-BR-3 [14] = test: Ratio of EC50 for human SKBR3 cells overexpressing ErbB in complete medium to EC50 for human SKBR3 cells overexpressing ErbB in serum-free medium; type: functional
A-431 [15] = test: Cell cycle arrest in human A431 cells at 50 to 75 uM after 36 hrs by propidium iodide staining-based flow cytometric analysis; type: functional
[16] = Cell cycle arrest in human SKBR3 cells at 50 to 75 uM after 36 hrs by propidium iodide staining-based flow cytometric analysis; type: functional; settings: SK-BR-3
A-431 [17] = test: Antiproliferative activity against human A431 cells overexpressing ErbB in serum-free medium assessed as cell viability after 48 hrs by WST-1 assay; type: functional, cell-based; settings: A-431, 48 h
A-431 [18] = test: Induction of apoptosis in human A431 cells overexpressing ErbB in complete medium assessed as late apoptotic/necrotic cells at 75 uM after 72 hrs by annexin V-FITC/7-AAD staining-based flow cytometric analysis relative to control; type: functional
[19] = target: Small ribosomal subunit protein uS2 (Homo sapiens) (UniProt P08865); test: Inhibition of 67LR co-localization in lipid rafts containing cholera toxin labeled GM1 gangliosides in human A431 cells after 30 mins by immunofluorescence-based confocal microscopic analysis (reference value: 75%); type: cell-based; settings: A-431
[20] = Antiproliferative activity against human SKBR3 cells overexpressing ErbB in serum-free medium assessed as cell viability after 48 hrs by WST-1 assay; type: functional, cell-based; settings: SK-BR-3, 48 h
[21] = Downregulation of ErbB2 protein expression in human SKBR3 cells in serum free medium at 50 uM after 24 hrs by immunofluorescence staining-based flow cytometric analysis; type: functional, cell-based; settings: SK-BR-3
A-431 [22] = test: Antiproliferative activity against anti-67LR treated human A431 cells overexpressing ErbB assessed as cell viability at 100 to 200 uM after 24 hrs by WST-1 staining-based spectrophotometric analysis; type: functional
A-431 [23] = test: Cell cycle arrest in human A431 cells assessed as decrease in accumulation at G0/G1 phase at 50 to 75 uM after 36 hrs by propidium iodide staining-based flow cytometric analysis; type: functional
[24] = Cell cycle arrest in human SKBR3 cells assessed as decrease in accumulation at G0/G1 phase at 50 to 75 uM after 36 hrs by propidium iodide staining-based flow cytometric analysis; type: functional; settings: SK-BR-3
A-431 [25] = test: Induction of apoptosis in human A431 cells overexpressing ErbB in complete medium assessed as late apoptotic/necrotic cells at 50 to 75 uM after 72 hrs by annexin V-FITC/7-AAD staining-based flow cytometric analysis; type: functional, cell-based
A-431 [26] = test: Cell cycle arrest in human A431 cells assessed as accumulation at G2/M phase at 50 to 75 uM after 36 hrs by propidium iodide staining-based flow cytometric analysis relative to control; type: functional
[27] = Cell cycle arrest in human SKBR3 cells assessed as accumulation at G2/M phase at 50 to 75 uM after 36 hrs by propidium iodide staining-based flow cytometric analysis relative to control; type: functional; settings: SK-BR-3
SK-BR-3 [28] = test: Induction of apoptosis in human SKBR3 cells overexpressing ErbB in complete medium assessed as late apoptotic/necrotic cells at 50 to 75 uM after 72 hrs by annexin V-FITC/7-AAD staining-based flow cytometric analysis; type: functional, cell-based

## O=C(O[C@@H]1Cc2c(O)cc(O)cc2O[C@@H]1c1cc(O)c(O)c(O)c1)c1cc(O)c(O)c(O)c1 [EPIGALOCATECHIN GALLATE]
A-431 [1]
  Activity: Active
A-431 [2]
  Activity: Active
A-431 [3]
  Activity: 30%
[4]
  Activity: inactive
[5]
  EC50: 195 µM
SK-BR-3 [6]
  Activity: 40%
A-431 [7]
  Ratio EC50: 2
SK-BR-3 [8]
  Activity: Active
[9]
  Activity: Active
[10]
  Activity: Active
[11]
  Activity: Active
A-431 [12]
  Activity: inactive
A-431 [13]
  EC50: 266 µM
SK-BR-3 [14]
  Ratio EC50: 2
A-431 [15]
  Activity: inactive
[16]
  Activity: inactive
A-431 [17]
  EC50: 38 µM
A-431 [18]
  Activity: 80%
[19]
  inhibition: 47%
[20]
  EC50: 100 µM
[21]
  Activity: 30%
A-431 [22]
  Activity: inactive

## O=c1c(-c2ccc(O)cc2)coc2cc(O)cc(O)c12 [GENISTEIN]
A-431 [23]
  Activity: Active
A-431 [1]
  Activity: inactive
[24]
  Activity: Active
A-431 [3]
  Activity: inactive
[5]
  EC50: 403 µM
A-431 [7]
  Ratio EC50: 2
SK-BR-3 [8]
  Activity: inactive
A-431 [25]
  Activity: Active
A-431 [13]
  EC50: 278 µM
SK-BR-3 [14]
  Ratio EC50: 2
A-431 [26]
  Activity: Active
A-431 [17]
  EC50: 108 µM
[27]
  Activity: 50%
SK-BR-3 [28]
  Activity: inactive
[20]
  EC50: 97 µM
[21]
  Activity: inactive

— ChEMBL document CHEMBL3108760, “Epigallocatechin 3-O-gallate induces 67 kDa laminin receptor-mediated cell death accompanied by downregulation of ErbB proteins and altered lipid raft clustering in mammary and epidermoid carcinoma cells” (J Nat Prod, 2014)
